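Briefly, cells in 96-well plates were exposed to five compound concentrations for 48 h, and endpoints were estimated by linear interpolation. GI50 is the concentration that inhibits growth by half.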 The source made the active and inactive calls. Rule as the data show it: active = GI50 up to about 1.1 µM and inactive = higher.
What was measured:
Assay in all cases: NCI tumour cell line growth inhibition, 48 h
[1] = test system: Malme-3M
[2] = test system: K562
[3] = test system: U-251
[4] = test system: MOLT-4
[5] = test system: A498
[6] = test system: OVCAR-5
[7] = test system: T47D
[8] = test system: CAKI-1
[9] = test system: TK-10
[10] = test system: A549
[11] = test system: OVCAR-4
[12] = test system: COLO 205
[13] = test system: KM12
[14] = test system: Hs-578T
[15] = test system: UACC-62
[16] = test system: SF-295
[17] = test system: EKVX
[18] = test system: HCT-116
[19] = test system: BT-549

Measured: GI50

C[C@@H](Cl)[C@H]1CCCN(Cc2ccc(Br)cc2)C1
inactive: [1] > 12.5 µM | [2] > 12.5 µM | [3] > 12.5 µM | [4] > 12.5 µM | [5] > 12.5 µM | [6] > 12.5 µM | [7] > 12.5 µM | [8] > 12.5 µM | [9] > 12.5 µM | [10] > 12.5 µM | [11] > 12.5 µM | [12] > 12.5 µM | [13] > 12.5 µM | [14] > 12.5 µM | [15] > 12.5 µM | [16] > 12.5 µM | [17] > 12.5 µM

CC(C)[C@H](NC(=O)[C@@H](O)[C@H](N)Cc1ccccc1)C(=O)N[C@@H](Cc1ccccc1)C(=O)O
inactive: [1] > 100 µM | [2] > 100 µM | [3] > 100 µM | [4] > 100 µM | [5] > 100 µM | [6] > 100 µM | [7] > 100 µM | [8] > 100 µM | [9] > 100 µM | [10] > 100 µM | [11] > 100 µM | [18] > 100 µM | [12] > 100 µM | [13] > 100 µM | [14] > 100 µM | [15] > 100 µM | [16] > 100 µM | [17] > 100 µM

Cc1ccc(C)n2c1nc1ccc3ccccc3c12
inactive: [1] > 100 µM | [2] > 100 µM | [3] > 100 µM | [4] > 100 µM | [6] > 100 µM | [7] 45 µM | [9] > 100 µM | [10] > 100 µM | [12] > 100 µM | [19] > 100 µM | [13] > 100 µM | [14] 49.9 µM | [15] 53.2 µM | [16] > 100 µM | [17] 27.9 µM

COc1ccccc1NC(=O)C(=O)Cc1cnc2ccccc2n1
inactive: [2] > 100 µM | [3] > 100 µM | [4] > 100 µM | [5] > 100 µM | [6] > 100 µM | [7] > 100 µM | [8] > 100 µM | [10] > 100 µM | [11] > 100 µM | [18] > 100 µM | [12] > 100 µM | [19] > 100 µM | [13] > 100 µM | [14] > 100 µM | [15] > 100 µM | [16] > 100 µM

CCCCCCCCCCCCCCCCCCNC(=S)N/C=C1\C(=O)Nc2ccccc2C1=O
inactive: [3] 19.2 µM | [4] 12.7 µM | [5] 21.4 µM | [6] 15.4 µM | [7] 24.7 µM | [8] 16.9 µM | [9] 23.3 µM | [10] 21.1 µM | [11] 20.6 µM | [18] 15.7 µM | [12] 17.4 µM | [19] 18.9 µM | [13] 16.1 µM | [16] 21.4 µM | [17] 13.7 µM

CCOC(=O)c1ccc(/N=C2/C(=S)N(c3ccc(C(=O)OCC)cc3)C(=N)N2/N=C/c2ccccc2)cc1
inactive: [1] 17.6 µM | [2] 3.7 µM | [3] > 10 µM | [6] 20 µM | [7] 2.77 µM | [8] 13.9 µM | [9] 23.2 µM | [10] 30 µM | [18] 6.11 µM | [12] 5.06 µM | [19] 17.5 µM | [13] 14.7 µM | [14] 47 µM | [15] 5.7 µM | [16] 26.7 µM | [17] 27.1 µM

COP1(=O)NCc2ncccc2O1 (centres undefined)
inactive: [2] > 100 µM | [3] > 100 µM | [4] > 100 µM | [5] > 100 µM | [6] > 100 µM | [7] > 100 µM | [8] > 100 µM | [10] > 100 µM | [11] > 100 µM | [18] > 100 µM | [12] > 100 µM | [19] > 100 µM | [13] > 100 µM | [15] > 100 µM | [16] > 100 µM | [17] > 100 µM

O=P1(C(O)c2ccccc2)N(Cc2ccccc2)[C@@H]2CCCC[C@H]2N1Cc1ccccc1 (some centres undefined)
inactive: [1] 30.7 µM | [2] 53.5 µM | [3] 31.3 µM | [4] 19.6 µM | [6] 24.8 µM | [7] 21.9 µM | [8] 64.4 µM | [9] 30.3 µM | [10] 28.8 µM | [11] 12.3 µM | [18] 27.4 µM | [12] 14.8 µM | [19] 50.2 µM | [13] 37.3 µM | [14] 20 µM | [15] 30.7 µM | [16] 23.6 µM | [17] 30.5 µM

O=C(O)c1cc(Cl)cc2c1NC1(N2)C(=O)Nc2ccccc21 (centres undefined)
inactive: [1] 69.2 µM | [2] > 100 µM | [3] 42.5 µM | [4] > 100 µM | [5] > 100 µM | [6] > 100 µM | [7] > 100 µM | [8] > 100 µM | [9] > 100 µM | [10] > 100 µM | [11] > 100 µM | [18] 56.4 µM | [12] > 100 µM | [19] > 100 µM | [13] > 100 µM | [15] > 100 µM | [16] > 100 µM | [17] > 100 µM

CSc1ncc2c(n1)C(C#N)C1Sc3ccccc3N1C2=O (centres undefined)
inactive: [1] > 100 µM | [3] 34.5 µM | [4] > 100 µM | [5] > 100 µM | [6] > 100 µM | [7] > 100 µM | [8] > 100 µM | [9] 90.4 µM | [10] > 100 µM | [11] > 100 µM | [18] > 100 µM | [12] > 100 µM | [19] > 100 µM | [13] > 100 µM | [16] 36 µM | [17] > 100 µM

COc1ccc(C(SC2C(O)C(CO)OC2n2ccc(N)nc2=O)(c2ccccc2)c2ccc(OC)cc2)cc1 (centres undefined)
inactive: [1] 15 µM | [2] 26.4 µM | [3] 15.6 µM | [4] 19.1 µM | [6] 20.1 µM | [7] 19.1 µM | [8] 31.3 µM | [9] 26.8 µM | [10] 18.5 µM | [11] 24.8 µM | [18] 14.9 µM | [12] 14.6 µM | [19] 18.2 µM | [13] 19.7 µM | [14] 18.4 µM | [15] 16.1 µM | [16] 6.79 µM | [17] 18.1 µM

CC1S/C(=N\N=C2/C(=O)Nc3ccc(Br)cc32)N(C2CCCCC2)C1=O (centres undefined)
inactive: [1] 9.23 µM | [2] > 100 µM | [3] 2.54 µM | [4] 5.37 µM | [5] 3.04 µM | [6] 14.4 µM | [7] 3.96 µM | [8] 1.8 µM | [9] 1.15 µM | [10] 3.41 µM | [11] 1.89 µM | [18] 2.24 µM | [12] 3.85 µM | [13] 4.65 µM | [14] 3.22 µM | [15] 2.01 µM | [16] 3.89 µM | [17] 4.16 µM

O=[N+]([O-])c1ccc(CN(CCCl)OCCCl)cc1
inactive: [1] > 100 µM | [2] 33.8 µM | [3] > 100 µM | [4] 20.9 µM | [6] > 100 µM | [7] 74.5 µM | [8] 64.9 µM | [9] > 100 µM | [10] 67.6 µM | [11] 56.9 µM | [18] 80.7 µM | [12] > 100 µM | [19] > 100 µM | [13] > 100 µM | [14] > 100 µM | [15] 55.8 µM | [16] > 100 µM | [17] 92.7 µM

CC(C)C(NC(=O)C(Cc1ccccc1)NC(=O)[C@H]1CCC[C@H]1NC(=O)C(N)Cc1ccc(O)cc1)C(N)=O (some centres undefined)
inactive: [1] > 100 µM | [2] > 100 µM | [3] > 100 µM | [4] > 100 µM | [5] > 100 µM | [6] > 100 µM | [7] > 100 µM | [8] > 100 µM | [9] > 100 µM | [10] > 100 µM | [11] > 100 µM | [18] > 100 µM | [12] > 100 µM | [13] > 100 µM | [14] > 100 µM | [15] > 100 µM | [16] > 100 µM | [17] > 100 µM

N=C(N)C1CN(CCc2c[nH]c3ccccc23)C(=O)NC1=O (centres undefined)
inactive: [1] > 100 µM | [2] > 100 µM | [3] > 100 µM | [4] > 100 µM | [5] > 100 µM | [6] > 100 µM | [7] > 100 µM | [9] > 100 µM | [10] > 100 µM | [11] > 100 µM | [18] > 100 µM | [12] > 100 µM | [19] > 100 µM | [15] > 100 µM | [16] > 100 µM | [17] > 100 µM

c1cn[nH]c1 [PYRAZOLE]
inactive: [1] > 10 µM | [2] > 10 µM | [3] > 10 µM | [4] > 10 µM | [5] > 10 µM | [7] > 10 µM | [9] > 10 µM | [10] > 10 µM | [11] > 10 µM | [18] > 10 µM | [12] > 10 µM | [13] > 10 µM | [14] > 10 µM | [15] > 10 µM | [16] > 10 µM | [17] > 10 µM

Source: ChEMBL document CHEMBL1201862, “PubChem BioAssay data set” (2004)
